Measured values published in PubChem BioAssay AID449745 (Broad Institute, 2010).
Records with an inconclusive call do not appear. Calls of active or inactive are those of the source. No rule for the calls is given here.

These compounds were tested against Zinc finger protein mex-5 (Caenorhabditis elegans) (UniProt Q9XUB2) (assay: MEX-5 RNA-binding inhibition confirmation – biochemical, C. elegans, fluorescence polarization, dose retest (AID 449745;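 also: potency is for blocking Mex-5 binding to labeled TCR2 RNA like unlabeled competitor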)). Settings: Mex-5 / TCR-2 RNA binding.
Sequence of Zinc finger protein mex-5 (Caenorhabditis elegans) (Q9XUB2 whole entry, looked up): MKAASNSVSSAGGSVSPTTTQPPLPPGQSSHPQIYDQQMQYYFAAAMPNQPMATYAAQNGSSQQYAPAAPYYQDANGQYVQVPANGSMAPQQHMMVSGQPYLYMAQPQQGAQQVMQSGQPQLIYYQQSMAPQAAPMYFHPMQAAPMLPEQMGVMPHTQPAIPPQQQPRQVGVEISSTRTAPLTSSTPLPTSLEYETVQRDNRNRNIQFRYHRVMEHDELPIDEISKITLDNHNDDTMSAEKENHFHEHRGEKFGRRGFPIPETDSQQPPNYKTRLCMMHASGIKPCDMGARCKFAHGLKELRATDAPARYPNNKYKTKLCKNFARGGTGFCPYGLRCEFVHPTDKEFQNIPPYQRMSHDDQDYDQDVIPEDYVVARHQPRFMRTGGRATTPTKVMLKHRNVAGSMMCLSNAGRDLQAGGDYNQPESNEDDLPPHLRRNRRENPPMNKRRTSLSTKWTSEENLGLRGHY

Compared with `COc1ccc(Cn2c(O)c(/C=N/NC(=O)c3ccccc3O)c(=O)[nH]c2=O)cc1`, `COC(=O)CCC(=O)OC1(C)C(=O)C2=CN(Cc3ccco3)C(c3ccc(OC)cc3)=CC2=C(Br)C1=O` (centres undefined) is 3.3-fold higher in AC50: 6.41 µM for the first, 21.1 µM for the second.

First: CC(C)(O)C(=O)NNC(=S)NCc1ccco1
Second: O=C(NC(=S)NNS(=O)(=O)c1ccccc1)c1ccc([N+](=O)[O-])cc1
The AC50 of the first is 8.2-fold lower: 4.16 µM for the first, 34.2 µM for the second.

`COC/C=C/C1=CC2=CC(=O)C(C)(O)C(=O)C2=CO1` (centres undefined) and `COc1cccc(N=Nc2c(N)[nH][nH]c2=O)c1` are within 1.5-fold of each other in AC50: 13 µM for the first, 10.3 µM for the second.

`COc1ccc(OC)c(N2C(=O)NC(=O)/C(=C/c3ccc([N+](=O)[O-])s3)C2=O)c1` and `COc1cc(C=C2C(=O)c3ccccc3C2=O)cc(OC)c1OC` are within 1.5-fold of each other in AC50: 22 µM for the first, 28.4 µM for the second.

`CCCCCCNC(=O)C(C#N)c1nc2ccccc2nc1N1CCOCC1` (centres undefined) and `O=C(O)CCCC(=O)NNc1nc(-c2ccccc2)c2cc(Cl)ccc2n1` are the same in AC50: 13.3 µM for the first, 13.3 µM for the second.

Going from `CCc1ccc[n+](-c2[nH]c(=O)sc2/C=N/NC([S-])=Nc2ccccc2)c1` to `Cc1cc(=O)n2[nH]c(=O)c(N=Nc3ccccc3)c2[nH]1`, the AC50 falls from 4.63 µM to under 0.3 µM.

First: Cc1ccc(C)n1C(Cc1ccccc1)C(=O)O (centres undefined)
Second: CC(=Nc1ccc(C)cc1C)c1sc2ccccc2c1O
The AC50 of the first is 4.2-fold lower: 8.84 µM for the first, 37.2 µM for the second.

First: Brc1ccc(C2=CC(c3cccs3)n3ncnc3N2)cc1 (centres undefined)
Second: O=c1ccc2cc3c([nH]c4ccc(Br)cc43)oc-2c1O
The AC50 of the first is 4.2-fold higher: 15.8 µM for the first, 3.77 µM for the second.

First: CC(=O)Nc1ccc2cc3ccc(NC(C)=O)cc3nc2c1
Second: O=C(O)c1ccc(NS(=O)(=O)c2ccc3c(c2)C(=O)c2ccccc2C3=O)cc1
The AC50 of the first is 2.6-fold lower: 10.9 µM for the first, 28.4 µM for the second.

Going from `CC1=C(C#N)C(=O)N(C2CCS(=O)(=O)C2)C(=O)/C1=C\c1ccco1` (centres undefined) to `O=C1c2cccc3c(Cl)ccc(c23)C(=O)N1O`, the AC50 rises from 3.22 µM to 26.2 µM (8.1-fold).

Compared with `O=C(O)COc1ccccc1C(Nc1cccnc1)c1cc(Cl)c2cccnc2c1O` (centres undefined), `COc1ccccc1OCC(=O)NNC(=O)c1cnccn1` is 3.4-fold higher in AC50: 10.5 µM for the first, 35.3 µM for the second.

Compared with `O=C(O)c1ccccc1NS(=O)(=O)c1cccc(-n2sc3ccccc3c2=O)c1`, `CC(C)OC(=O)c1c2c(n3ccccc13)C(=O)c1ccccc1C2=O` is 2.4-fold higher in AC50: 7.89 µM for the first, 19.1 µM for the second.

Going from `Cc1cccc2cc3c(N)c(C(=O)N4CCCc5ccccc54)sc3nc12` to `Cc1cccc(N=Nc2c(O)[nH]c3ccc(F)cc23)c1`, the AC50 falls from 19.9 µM to 4.46 µM (4.5-fold).

`Cn1ncc2c(NNC(=O)c3ccc(Cl)cc3Cl)ncnc21` and `CN(N=Nc1ccc([N+](=O)[O-])cc1)c1ccccc1` are within 1.5-fold of each other in AC50: 12.7 µM for the first, 9.51 µM for the second.

With `CCc1nnc(NS(=O)(=O)c2ccc(N=Cc3c(O)n(-c4ccc(Cl)cc4)c(=O)[nH]c3=O)cc2)s1` the AC50 was > 38 µM (inactive).
`O=C(O)CCCCCN1C(=O)C(O)=C(C(=O)/C=C/c2ccccc2)C1c1ccccc1[N+](=O)[O-]` (centres undefined) was tested, and the AC50 was > 38 µM (inactive).
For `Cc1nc2ccc3nc(NC(=O)c4ccc5c(c4)OCCO5)sc3c2s1`, the AC50 was > 38 µM (inactive).
In the case of `COc1ccc(/C=C2\C(=O)NC(=S)N2C(=O)c2ccc(C)cc2)cc1`, the AC50 is reported as > 38 µM (inactive).
For `Cc1cc(C)cc(NC(=O)N(C)Cc2ccccc2)c1`, the AC50 was > 38 µM (inactive).
`C#CCN1C(=O)S/C(=C\c2ccc(-c3ccc(Cl)c(C(=O)O)c3)o2)C1=O` was tested, and the AC50 was > 38 µM (inactive).
